Activity calls are given as the source filed them. The rule behind the calls is not given here.
Experiments:
MCF7 [1] = test: Induction of cell cycle arrest at S phase in human MCF7 cells at 4 uM by Annexin-V-FLUOS staining based flow cytometry; format: functional
MDA-MB-231 [2] = test: Induction of cell cycle arrest at G2/M phase in human MDA-MB-231 cells at 4 uM in presence of 1:1 of compound:Olaparib by Annexin-V-FLUOS staining based flow cytometry; format: functional
MCF7 [3] = test: Antiproliferation activity against human MCF7 cells assessed as decrease in Ki67 expression at 4 uM incubated for 48 hrs in presence of 1:1 of compound:Olaparib by immunofluorescence analysis; format: functional, cell-based
MDA-MB-231 [4] = test: Induction of apoptosis in human MDA-MB-231 cells assessed as increase in Bax level at 4 uM incubated for 2 days in presence of 1:1 of compound:Olaparib by immunoblot analysis; format: functional, cell-based; details: time 2.0 day
MCF7 [5] = test: Induction of apoptosis in human MCF7 cells assessed as decrease in Bcl-2 level at 4 uM incubated for 2 days in presence of 1:1 of compound:Olaparib by immunoblot analysis; format: functional, cell-based; details: time 2.0 day
MCF7 [6] = test: Induction of apoptosis in human MCF7 cells assessed as increase in Bax level at 4 uM incubated for 2 days in presence of 1:1 of compound:Olaparib by immunoblot analysis; format: functional, cell-based; details: time 2.0 day
MCF7 [7] = test: Antimigratory activity against human MCF7 cells at 4 uM incubated for 1 hr in presence of 1:1 of compound:Olaparib by wound healing assay; format: functional, cell-based
MDA-MB-231 [8] = test: Antimigratory activity in human MDA-MB-231 cells assessed as upregulation of E-cadherin level at 4 uM by DAPI staining based immunofluorescence analysis; format: functional, cell-based
MCF7 [9] = test: Antimigratory activity in human MCF7 cells assessed as upregulation of E-cadherin level at 4 uM by DAPI staining based immunofluorescence analysis; format: functional, cell-based
MCF7 [10] = test: Antimigratory activity in human MCF7 cells assessed as upregulation of E-cadherin level at 4 uM in presence of 1:1 of compound:Olaparib by DAPI staining based immunofluorescence analysis; format: functional, cell-based
MCF7 [11] = test: Antimigratory activity in human MCF7 cells assessed as downregulation of MMP-2 level at 4 uM in presence of 1:1 of compound:Olaparib by DAPI staining based immunofluorescence analysis; format: functional, cell-based
MDA-MB-231 [12] = test: Antimigratory activity in human MDA-MB-231 cells assessed as upregulation of E-cadherin level at 4 uM incubated for 2 days in presence of 1:1 of compound:Olaparib by immunoblot analysis; format: functional, cell-based; details: time 2.0 day
MDA-MB-231 [13] = test: Antimigratory activity in human MDA-MB-231 cells assessed as downregulation of MMP-2 level at 4 uM incubated for 2 days in presence of 1:1 of compound:Olaparib by immunoblot analysis; format: functional, cell-based; details: time 2.0 day
MDA-MB-231 [14] = test: Downregulation of Olaparib-induced PAR expression in human MDA-MB-231 cells at 4 uM incubated for 2 days by Western blot analysis; format: functional, cell-based; details: time 2.0 day
MCF7 [15] = test: Induction of DNA damage in human MCF7 cells assessed as increase in comet tail length at 4 uM in presence 1:1 of Olaparib by alkaline comet assay; format: functional, cell-based
MCF7 [16] = test: Induction of DNA damage in human MCF7 cells assessed as increase in gamma-H2AX level at 4 uM incubated for 48 hrs by DAPI staining based immunofluorescence analysis; format: functional, cell-based
MDA-MB-231 [17] = test: Induction of HR DNA repair in human MDA-MB-231 cells assessed as decrease in RAD51 level at 4 uM incubated for 48 hrs in presence of 1:1 of compound:Olaparib by DAPI staining based immunofluorescence analysis; format: functional, cell-based
MCF7 [18] = test: Induction of HR DNA repair in human MCF7 cells assessed as decrease in RAD51 level at 4 uM incubated for 48 hrs in presence of 1:1 of compound:Olaparib by DAPI staining based immunofluorescence analysis; format: functional, cell-based
MCF7 [19] = test: Antiinvasive activity against human MCF7 cells at 4 uM incubated for 12 hrs in presence of 1:1 of compound:Olaparib by transwell assay; format: functional, cell-based
MDA-MB-231 [20] = test: Antiproliferation activity against human MDA-MB-231 cells xenografted in BALB/c nude mouse assessed as decrease in Ki67 expression at 50 mg/kg, po for 14 days in presence of 1:1 of compound:Olaparib by H and E staining based IHC analysis; format: functional, organism-based; details: time 14.0 day
[21] = biological target: Vascular endothelial growth factor receptor 1 (Homo sapiens, UniProt P17948); test: Inhibition of VEGFR1 phosphorylation at tyr1333 residue in human MDA-MB-231 cells xenografted in BALB/c nude mouse at 50 mg/kg, po for 14 days in presence of 1:1 of compound:Olaparib by H and E staining based IHC analysis; format: organism-based; details: time 14.0 day
Chain of Vascular endothelial growth factor receptor 1 (P17948 whole entry): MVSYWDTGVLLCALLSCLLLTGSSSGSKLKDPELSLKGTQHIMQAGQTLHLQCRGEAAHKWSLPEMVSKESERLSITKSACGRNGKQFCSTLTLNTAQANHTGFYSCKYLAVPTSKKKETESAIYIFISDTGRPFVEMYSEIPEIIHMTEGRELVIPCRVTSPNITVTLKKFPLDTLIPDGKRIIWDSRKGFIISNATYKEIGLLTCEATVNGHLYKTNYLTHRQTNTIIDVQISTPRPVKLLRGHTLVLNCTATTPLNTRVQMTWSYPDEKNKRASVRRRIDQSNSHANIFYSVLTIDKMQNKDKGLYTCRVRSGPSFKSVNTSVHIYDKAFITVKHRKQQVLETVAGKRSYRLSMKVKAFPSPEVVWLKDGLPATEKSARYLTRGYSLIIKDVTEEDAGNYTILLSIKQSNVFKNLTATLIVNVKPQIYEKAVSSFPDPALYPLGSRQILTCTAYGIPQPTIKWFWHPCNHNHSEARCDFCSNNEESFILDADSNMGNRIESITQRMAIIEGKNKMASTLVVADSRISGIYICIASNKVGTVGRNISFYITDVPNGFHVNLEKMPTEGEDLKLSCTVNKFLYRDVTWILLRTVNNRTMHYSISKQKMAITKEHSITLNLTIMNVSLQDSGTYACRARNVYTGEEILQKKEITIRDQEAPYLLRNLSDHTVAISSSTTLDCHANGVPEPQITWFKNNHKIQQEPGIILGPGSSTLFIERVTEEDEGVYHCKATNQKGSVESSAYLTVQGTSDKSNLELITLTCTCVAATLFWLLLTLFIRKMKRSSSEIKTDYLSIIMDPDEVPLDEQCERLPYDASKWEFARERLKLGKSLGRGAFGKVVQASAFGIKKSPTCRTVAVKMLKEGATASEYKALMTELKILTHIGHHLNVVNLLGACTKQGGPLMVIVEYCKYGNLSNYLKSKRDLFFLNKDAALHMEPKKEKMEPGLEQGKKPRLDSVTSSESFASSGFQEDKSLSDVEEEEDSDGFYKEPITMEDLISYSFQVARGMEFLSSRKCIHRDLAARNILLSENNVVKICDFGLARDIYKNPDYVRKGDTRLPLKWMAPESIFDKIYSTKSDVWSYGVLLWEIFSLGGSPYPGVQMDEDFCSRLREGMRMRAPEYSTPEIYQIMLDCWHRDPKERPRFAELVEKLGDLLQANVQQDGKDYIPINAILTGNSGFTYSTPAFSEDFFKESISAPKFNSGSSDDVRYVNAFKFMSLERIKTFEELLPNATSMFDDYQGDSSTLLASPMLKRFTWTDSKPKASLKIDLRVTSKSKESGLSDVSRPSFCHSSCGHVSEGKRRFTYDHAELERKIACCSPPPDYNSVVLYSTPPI

MDA-MB-231 [22] = test: Antimigratory activity in human MDA-MB-231 cells xenografted in BALB/c nude mouse assessed as downregulation of MMP2 level at 50 mg/kg, po for 14 days in presence of 1:1 of compound:Olaparib by H and E staining based IHC analysis; format: functional, organism-based; details: time 14.0 day
MDA-MB-231 [23] = test: Antimigratory activity in human MDA-MB-231 cells xenografted in BALB/c nude mouse assessed as upregulation of E-cadherin level at 50 mg/kg, po for 14 days in presence of 1:1 of compound:Olaparib by H and E staining based IHC analysis; format: functional, organism-based; details: time 14.0 day
MDA-MB-231 [24] = test: Induction of DNA damage in human MDA-MB-231 cells xenografted in BALB/c nude mouse assessed as increase in gamma-H2AX level at 50 mg/kg, po for 14 days in presence of 1:1 of compound:Olaparib by Western blot analysis; format: functional, organism-based; details: time 14.0 day
MDA-MB-231 [25] = test: Induction of HR DNA repair in human MDA-MB-231 cells xenografted in BALB/c nude mouse assessed as decrease in FOXM1 level at 50 mg/kg, po for 14 days in presence of 1:1 of compound:Olaparib by H and E staining based IHC analysis; format: functional, organism-based; details: time 14.0 day
MDA-MB-231 [26] = test: Antimetastatic activity against human MDA-MB-231 cells xenografted in lungs of BALB/c nude mouse assessed as decrease in lung metastatic nodules at 50 mg/kg administered once a day measured after 14 days in presence of 1:1 of compound:Olaparib; format: functional, organism-based; details: time 14.0 day
MDA-MB-231 [27] = test: Antimetastatic activity against human MDA-MB-231 cells xenografted in lungs of BALB/c nude mouse assessed as decrease in lung metastatic nodules at 50 mg/kg administered once a day measured after 14 days in presence of 1:1 of compound:Olaparib by H and E staining based analysis; format: functional, organism-based; details: time 14.0 day
MDA-MB-231 [28] = test: Antimigratory activity in human MDA-MB-231 cells xenografted in lungs of BALB/c nude mouse assessed as increase in E-cadherin level in lungs at 50 mg/kg administered once a day measured after 14 days in presence of 1:1 of compound:Olaparib by IHC analysis; format: functional, organism-based; details: time 14.0 day
[29] = biological target: Vascular endothelial growth factor receptor 2 (Homo sapiens, UniProt P35968); details: MDA-MB-231, dose 25-50 mg/kg, route po, time 14.0 day
Chain of Vascular endothelial growth factor receptor 2 (P35968 whole entry): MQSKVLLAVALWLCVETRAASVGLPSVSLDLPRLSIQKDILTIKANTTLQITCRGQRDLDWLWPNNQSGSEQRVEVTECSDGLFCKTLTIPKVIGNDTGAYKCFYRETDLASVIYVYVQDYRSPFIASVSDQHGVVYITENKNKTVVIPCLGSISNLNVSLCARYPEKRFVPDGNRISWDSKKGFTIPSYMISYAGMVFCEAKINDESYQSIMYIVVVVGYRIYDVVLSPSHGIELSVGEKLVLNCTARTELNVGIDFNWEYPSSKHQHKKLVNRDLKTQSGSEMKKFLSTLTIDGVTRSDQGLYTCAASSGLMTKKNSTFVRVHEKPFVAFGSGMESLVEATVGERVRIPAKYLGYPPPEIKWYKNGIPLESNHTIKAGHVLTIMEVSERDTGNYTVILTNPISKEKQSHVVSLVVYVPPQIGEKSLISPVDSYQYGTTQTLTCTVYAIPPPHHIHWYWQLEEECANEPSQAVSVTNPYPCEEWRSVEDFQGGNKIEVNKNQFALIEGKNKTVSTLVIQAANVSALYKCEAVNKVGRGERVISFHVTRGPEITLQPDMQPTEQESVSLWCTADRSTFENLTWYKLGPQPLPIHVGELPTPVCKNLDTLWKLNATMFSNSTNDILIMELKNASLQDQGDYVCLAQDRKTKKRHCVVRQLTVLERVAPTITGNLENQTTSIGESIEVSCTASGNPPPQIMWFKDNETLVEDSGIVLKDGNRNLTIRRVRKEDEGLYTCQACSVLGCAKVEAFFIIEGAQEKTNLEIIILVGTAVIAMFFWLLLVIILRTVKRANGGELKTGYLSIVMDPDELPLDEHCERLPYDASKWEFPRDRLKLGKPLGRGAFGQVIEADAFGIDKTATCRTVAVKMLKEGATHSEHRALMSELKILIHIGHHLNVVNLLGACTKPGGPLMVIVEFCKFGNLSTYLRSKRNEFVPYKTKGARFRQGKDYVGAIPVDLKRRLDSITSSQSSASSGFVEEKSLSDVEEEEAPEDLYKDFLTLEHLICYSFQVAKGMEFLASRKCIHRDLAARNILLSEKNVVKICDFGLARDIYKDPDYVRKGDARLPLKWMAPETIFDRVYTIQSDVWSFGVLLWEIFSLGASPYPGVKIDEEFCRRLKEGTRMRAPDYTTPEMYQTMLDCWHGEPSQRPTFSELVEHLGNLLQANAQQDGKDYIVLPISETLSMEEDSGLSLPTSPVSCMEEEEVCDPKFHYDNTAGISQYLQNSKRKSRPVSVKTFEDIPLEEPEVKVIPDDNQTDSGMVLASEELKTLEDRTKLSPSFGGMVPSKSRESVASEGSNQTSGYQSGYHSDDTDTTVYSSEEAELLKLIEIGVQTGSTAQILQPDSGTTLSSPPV

HCC1937 = test: cells; details: Homo sapiens
HUVEC = test: cells; details: Homo sapiens, 48 h

Compound: Cc1ccc(Nc2nccc(N(C)c3ccc4c(C)n(C)nc4c3)n2)cc1S(N)(=O)=O [PAZOPANIB]
- Activity (MCF7 [1]): Active
- Activity (MDA-MB-231 [2]): Active
- Activity (MCF7 [3]): Active
- Activity (MDA-MB-231 [4]): Active
- Activity (MCF7 [5]): Active
- Activity (MCF7 [6]): Active
- Activity (MCF7 [7]): Active
- Activity (MDA-MB-231 [8]): Active
- Activity (MCF7 [9]): Active
- Activity (MCF7 [10]): Active
- Activity (MCF7 [11]): Active
- Activity (MDA-MB-231 [12]): Active
- Activity (MDA-MB-231 [13]): Active
- Activity (MDA-MB-231 [14]): inactive
- Activity (MCF7 [15]): Active
- Activity (MCF7 [16]): Active
- Activity (MDA-MB-231 [17]): Active
- Activity (MCF7 [18]): Active
- Activity (MCF7 [19]): Active
- Activity (MDA-MB-231 [20]): Active
- inhibition [21]: Active
- Activity (MDA-MB-231 [22]): Active
- Activity (MDA-MB-231 [23]): Active
- Activity (MDA-MB-231 [24]): Active
- Activity (MDA-MB-231 [25]): Active
- Activity (MDA-MB-231 [26]): Active
- Activity (MDA-MB-231 [27]): Active
- Activity (MDA-MB-231 [28]): Active
- inhibition [29]: Active
- IC50 (HCC1937): > 10 µM
- IC50 (HUVEC): 4.6 µM

From ChEMBL document CHEMBL5321287, “Discovery, Synthesis, and Evaluation of Novel Dual Inhibitors of a Vascular Endothelial Growth Factor Receptor and Poly(ADP-Ribose) Polymerase for BRCA Wild-Type Breast Cancer Therapy” (J Med Chem, 2023)
